Values after ≈ are worked out from the molar mass of the structure shown. “Also recorded” adds a separate entry of the source.
What was measured:
[1] = serum half-life after intravenous administration to rats; conditions: rat, in vivo, rats, intravenously
Description: The A82846 antibiotics have excellent in vitro and in vivo activity against Gram-positive pathogenic bacteria. A particularly unexpected attribute of these antibiotics is their long serum half-life.

Staphylococcus aureus [2] = test: MIC by standard agar-dilution assay (Table VIII); assay type: cell-based; conditions: Staphylococcus aureus, 20 strains tested, read-out: MIC
Protocol: (§1) The MIC's in Tables VII and VIII were determined by standard agar-dilution assays.

[3] = test system: Staphylococcus epidermidis; test: MIC by standard agar-dilution assay (Table VIII); assay type: cell-based; conditions: Staphylococcus epidermidis, 20 strains tested, read-out: MIC
Protocol: as §1

Streptococcus mutans = test: MIC by standard agar-dilution assay (Table VIII); assay type: cell-based; conditions: Streptococcus mutans, 2 strains tested, read-out: MIC
Protocol: as §1

Streptococcus pneumoniae [4] = test: MIC by standard agar-dilution assay (Table VIII); assay type: cell-based; conditions: Streptococcus pneumoniae, 20 strains tested, read-out: MIC
Protocol: as §1

Streptococcus pyogenes [5] = test: MIC by standard agar-dilution assay (Table VIII); assay type: cell-based; conditions: Streptococcus pyogenes, 12 strains tested, read-out: MIC
Protocol: as §1

Streptococcus salivaris = test: MIC by standard agar-dilution assay (Table VIII); assay type: cell-based; conditions: Streptococcus, 1 strain tested, read-out: MIC
Protocol: as §1

Streptococcus sanguis = test: MIC by standard agar-dilution assay (Table VIII); assay type: cell-based; conditions: Streptococcus, 4 strains tested, read-out: MIC
Protocol: as §1

[6] = test system: Streptococcus sp. group. D; test: MIC by standard agar-dilution assay (Table VIII); assay type: cell-based; conditions: Streptococcus, 20 strains tested, read-out: MIC
Protocol: as §1

Clostridium difficile = test: MIC against anaerobic bacteria, standard agar-dilution assay (Table IX); assay type: cell-based; conditions: Clostridioides difficile; 19 strains; Gram-positive anaerobe; 24-hour incubation; read-out: MIC
Clostridium perfringens = test: microbe, parasite or virus in culture; assay type: cell-based; conditions: Clostridium perfringens, 24 h
Eubacterium aerofaciens = test: MIC against anaerobic bacteria, standard agar-dilution assay (Table IX); assay type: cell-based; conditions: Collinsella aerofaciens; 1 strain; Gram-positive anaerobe; 24-hour incubation; read-out: MIC
[7] = test system: Peptococcus asaccharolyticus; test: as above; assay type: cell-based; conditions: Peptoniphilus asaccharolyticus; 3 strains; Gram-positive anaerobe; 24-hour incubation; read-out: MIC
Peptococcus prevoti = test: as above; assay type: cell-based; conditions: 4 strains; Gram-positive anaerobe; 24-hour incubation; read-out: MIC
Peptococcus variabilis = test: as above; assay type: cell-based; conditions: 1 strain; Gram-positive anaerobe; 24-hour incubation; read-out: MIC
Peptococcus constellatus = test: as above; assay type: cell-based; conditions: Streptococcus constellatus; 1 strain; Gram-positive anaerobe; 24-hour incubation; read-out: MIC
Peptococcus magnus = test: as above; assay type: cell-based; conditions: Finegoldia magna; 3 strains; Gram-positive anaerobe; 24-hour incubation; read-out: MIC
[8] = test system: Peptostreptococcus anaerobius; test: as above; assay type: cell-based; conditions: Peptostreptococcus anaerobius; 8 strains; Gram-positive anaerobe; 24-hour incubation; read-out: MIC
[9] = test system: Peptostreptococcus intermedius; test: as above; assay type: cell-based; conditions: Peptostreptococcus; 3 strains; Gram-positive anaerobe; 24-hour incubation; read-out: MIC
Propionibacterium acnes = test: as above; assay type: cell-based; conditions: Cutibacterium acnes; 19 strains; Gram-positive anaerobe; 24-hour incubation; read-out: MIC
Bacteroides fragilis = test: as above; assay type: cell-based; conditions: Bacteroides fragilis; 3 strains; Gram-negative anaerobe; 24-hour incubation; read-out: MIC
[10] = test system: Bacteroides thetaiotaomicron; test: as above; assay type: cell-based; conditions: Bacteroides thetaiotaomicron; 1 strain; Gram-negative anaerobe; 24-hour incubation; read-out: MIC
[11] = test system: Bacteroides melaninogenicus; test: as above; assay type: cell-based; conditions: 2 strains; Gram-negative anaerobe; 24-hour incubation; read-out: MIC
Bacteroides vulgatis = test: as above; assay type: cell-based; conditions: Bacteroides; 1 strain; Gram-negative anaerobe; 24-hour incubation; read-out: MIC
Bacteroides corrodens = test: as above; assay type: cell-based; conditions: Eikenella corrodens; 1 strain; Gram-negative anaerobe; 24-hour incubation; read-out: MIC
Fusobacterium symbiosum = test: as above; assay type: cell-based; conditions: Fusobacterium; 1 strain; Gram-negative anaerobe; 24-hour incubation; read-out: MIC
[12] = test system: Fusobacterium necrophorum; test: as above; assay type: cell-based; conditions: Fusobacterium necrophorum; 1 strain; Gram-negative anaerobe; 24-hour incubation; read-out: MIC
Staphylococcus aureus [13] = test: protection of mice experimentally infected with test organism (Table X); assay type: in vivo; conditions: sc, read-out: ED50 Value
Protocol: (§2) The A82846 antibiotics have also shown in vivo antimicrobial activity against experimentally-induced infections in laboratory animals. When two doses of test compound were administered to mice experimentally infected with the test organism, the activity observed was measured as an ED50 value [effective dose in mg/kg to protect 50% of the test animals: see Warren Wick, et al., J. Bacteriol. 81, 233-235 (1961)].
(§3) ^a mg/kg × 2; doses administered subcutaneously to mice 1 and 4

Streptococcus pneumoniae [14] = test: as above; assay type: in vivo; conditions: sc, read-out: ED50 Value
Protocol: as §2, §3

Streptococcus pyogenes [15] = test: as above; assay type: in vivo; conditions: sc, read-out: ED50 Value
Protocol: as §2, §3

[16] = test system: experimental descending pyelonephritis infection in rats; test: Rat Descending Pyelonephritis Test (Table XI); assay type: in vivo
Protocol: In one important aspect of their antibacterial activity, the A82846 antibiotics are useful for treating pyelonephritis. […] This test was carried out using a procedure like that described in U.S. Pat. No. 4,208,403.
^a Doses twice per day subcutaneously for 6 days

[17] = test system: Streptococcus faecalis X-66; test: Rat Endocarditis Test, catheter-induced (Table XII); assay type: in vivo, rats; conditions: 16 days, 20 mg/kg × 28, subcutaneous at 12-hour intervals for 14 days
Protocol: The A82846 antibiotics are also useful in the treatment of endocarditis. […] In this test, rats were prepared by inserting a plastic catheter into the right carotid artery, feeding it down into the […] of the heart and anchoring it securely. The animals were allowed to rest two days, and then the test organism, Streptococcus faecalis X-66, was administered intravenously. The organism titer was approximately 5×10^8 /mL; 0.5 mL was administered.
The compounds were administered subcutaneously 15 minutes prior to infection and at 12-hour intervals for 14 days, a total of 28 treatments. The animals were held 2 days after therapy; then, the hearts were removed, homogenized, diluted and plated on trypticase soy agar. Plates were incubated 48 hours before counting.
^a Catheterinduced endocarditis using Streptococcus faecalis X66
^b Subcutaneous doses at 12hour intervals for 14 days
^c % of animals sacrificed with 4 log drop

[18] = human medicine; cited from earlier work
Clostridium septicum = test: MIC against anaerobic bacteria, standard agar-dilution assay (Table IX); conditions: Clostridium septicum, 24 h
[19] = test system: Cultures A82846 and A82846.1; test: resistance to antibiotics, antibiotic sensitivity discs on seeded agar plates; conditions: disc 30 μg
[20] = 2 mg/kg × 12, subcutaneous twice per day for 6 days
[21] = 5 mg/kg × 12, subcutaneous twice per day for 6 days
[22] = 10 mg/kg × 12, subcutaneous twice per day for 6 days

CN[C@H](CC(C)C)C(=O)N[C@H]1C(=O)N[C@@H](CC(N)=O)C(=O)N[C@H]2C(=O)N[C@H]3C(=O)N[C@H](C(=O)N[C@H](C(=O)O)c4cc(O)cc(O)c4-c4cc3ccc4O)[C@H](O)c3ccc(c(Cl)c3)Oc3cc2cc(c3O[C@@H]2O[C@H](CO)[C@@H](O)[C@H](O)[C@H]2O[C@H]2C[C@](C)(N)[C@H](O)[C@H](C)O2)Oc2ccc(cc2Cl)[C@H]1O [Vancomycin, vancomycin, reference compound]
half-life [1]: 45 min | MIC (Staphylococcus aureus [2]): 0.5 to 2 µg/mL (≈ 0.345 to 1.38 µM) | MIC [3]: 1 to 2 µg/mL (≈ 0.69 to 1.38 µM) | MIC (Streptococcus mutans): 0.125 to 2 µg/mL (≈ 0.0863 to 1.38 µM) | MIC (Streptococcus pneumoniae [4]): 0.015 to 4 µg/mL (≈ 0.0104 to 2.76 µM) | MIC (Streptococcus pyogenes [5]): 0.5 µg/mL (≈ 0.345 µM) | MIC (Streptococcus salivaris): 0.5 µg/mL (≈ 0.345 µM) | MIC (Streptococcus sanguis): 0.5 to 1 µg/mL (≈ 0.345 to 0.69 µM) | MIC [6]: 1 to 2 µg/mL (≈ 0.69 to 1.38 µM) | MIC (Clostridium difficile): 0.5 to 4 µg/mL (≈ 0.345 to 2.76 µM) | MIC (Clostridium perfringens): 2 µg/mL (≈ 1.38 µM) | MIC (Eubacterium aerofaciens): 2 µg/mL (≈ 1.38 µM) | MIC [7]: 1 µg/mL (≈ 0.69 µM) | MIC (Peptococcus prevoti): 1 to 4 µg/mL (≈ 0.69 to 2.76 µM) | MIC (Peptococcus variabilis): 1 µg/mL (≈ 0.69 µM) | MIC (Peptococcus constellatus): 1 µg/mL (≈ 0.69 µM) | MIC (Peptococcus magnus): 0.25 to 1 µg/mL (≈ 0.173 to 0.69 µM) | MIC [8]: 0.25 to 2 µg/mL (≈ 0.173 to 1.38 µM) | MIC [9]: 0.5 to 1 µg/mL (≈ 0.345 to 0.69 µM) | MIC (Propionibacterium acnes): 2 to 16 µg/mL (≈ 1.38 to 11 µM) | MIC (Bacteroides fragilis): 32 to 64 µg/mL (≈ 22.1 to 44.2 µM) | MIC [10]: 64 µg/mL (≈ 44.2 µM) | MIC [11]: > 128 µg/mL | MIC (Bacteroides vulgatis): 64 µg/mL (≈ 44.2 µM) | MIC (Bacteroides corrodens): 64 µg/mL (≈ 44.2 µM) | MIC (Fusobacterium symbiosum): 4 µg/mL (≈ 2.76 µM) | MIC [12]: 1 µg/mL (≈ 0.69 µM) | ED50 (Staphylococcus aureus [13]): 1.3 mg/kg | ED50 (Streptococcus pneumoniae [14]): 1.52 mg/kg | ED50 (Streptococcus pyogenes [15]): 0.72 mg/kg | Percent of Rats Cured [16, 20]: 38% | Percent of Rats with a 4-Log Reduction in Titer [16, 20]: 75% | Percent of Rats Cured [16, 21]: 38% | Percent of Rats with a 4-Log Reduction in Titer [16, 21]: 88% | Percent of Rats Cured [16, 22]: 63% | Percent of Rats with a 4-Log Reduction in Titer [16, 22]: 100% | % Cured [17]: 100% | % With 4 Log Drop ([17]; % of animals sacrificed): 100% | side effects [18]: ototoxicity; also recorded: nephrotoxicity | MIC (Clostridium septicum): 2 µg/mL (≈ 1.38 µM) | antibiotic resistance [19]: resistant
